Experimental data from patent US10031128B2, “Screening method, screening kit and analysis program” (National Institutes for Quantum and Radiological Science …, priority 2012, dated 2018).
Like-named read-outs stand apart in the source and are kept apart here.

Test system: rat thymocytes
Format: cell-based
Conditions: 4 h, pH 6.8
Procedure: As Example 1, an example using thymocytes as lymphoid cells will be described. In this example, rat thymocytes are used. A rat is suited for studies of screening and the like because a rat has the thymus larger than that of a mouse, and a large quantity of thymocytes corresponding to 2000 to 20000 samples is obtained from one rat.
(1) First, extract the thymus surgically from a rat.
(2) The extracted thymus is washed lightly in PBS. This washing may be performed for 1 minute to 5 minutes, and actually for 2 minutes to 3 minutes merely for washing out excess blood or tissues.
(3) The washed thymus is put into a RPMI 1640 medium supplemented with approximately 10% FBS (fetal bovine serum) (having subjected to an inactivation treatment). As the inactivation treatment, a heat treatment at 56° C. is performed for 30 minutes. In the example, the RPMI 1640 medium is 500 ml (ml is a unit symbol for milliliter, the same shall apply hereinafter), and FBS is 55 ml. Thereafter, the thymocytes are kept in the RPMI 1640 medium supplemented with serum to improve the separating ability of the presence or absence of condensation, and improve the measurement accuracy.
(4) Thymocytes are squeezed out of the thymus with tweezers, and passed through mesh to remove unnecessary contaminants and to disassemble the thymocytes. The culture temperature during this treatment is 4° C., and pH is 6.8. The amount of the medium used during cell purification is approximately 20 ml.
(5) The number of cells is counted, and a required number of the cells are seeded on a plate. In the experiment of this example, 5×10^5 cells/well are seeded using a 48-well plate. Also, since measurement is performed for about 20 samples in the experiment of this example, approximately 10 ml of a medium is used. As the medium, a medium of the volume conforming to the container is required. For example, when a 48-well plate is used, approximately 500 μl/well (microliter per well) is required in seeding cells on the plate. When a 96-well plate is used, approximately 50 to 200 μl/well is required in seeding cells on the plate. When one 96-well plate is used, up to approximately 20 ml of a medium is required.
In this example, (I) irradiation with 2 Gy X-ray, (II) administration with a 1 mM (mM is a unit symbol for millimolar, the same shall apply hereinafter) catechin derivative, (III) preliminary administration with a 1 mM catechin derivative and irradiation with 2 Gy X-ray, (IV) administration with 100 μM epigallocatechin (μM is a unit symbol for micromolar, the same shall apply hereinafter), (V) administration with 10 μM vitamin C, or (VI) administration with 100 μM vitamin C was performed. The temperature of the medium in performing this treatment can be 4° C. to room temperature, and is preferably approximately 4° C. so as not to promote the reaction. Gray (Gy) is a unit for absorbed dose of radiation. The absorbed dose when 1 joule of radiation energy is absorbed in 1 kilogram of a substance by radiation is defined as 1 gray.
The samples of (I) to (VI) in Step 2 were incubated for 4 hours. During the incubation, the medium is at a temperature of 37° C., at a CO2 concentration of 5%, under humidification, and at pH 6.8.
After the incubation in Step 3, measurement was performed by using FACSCALIBUR™ (a flow cytometry system). The time required for the measurement is about one hour. […]
FIG. 2(A) to FIG. 2(D), and FIG. 3(A) to FIG. 3(D) are cell size measurement graphs showing measured cell sizes. […]

SMILES: Oc1cc(O)c2c(c1)O[C@H](c1cc(O)c(O)c(O)c1)[C@H](O)C2 [epigallocatechin]
- peak of cell size (cell size measurement graph) (100 μM): around 300

SMILES: O=C1O[C@H]([C@@H](O)CO)C(O)=C1O [vitamin C]
- another peak at apoptotic cell peak position (cell size) (10 μM): around 250
- peak of cell size (cell size measurement graph) (10 μM): around 400
- another peak at apoptotic cell peak position (cell size) (100 μM): around 250
- peak of cell size (cell size measurement graph) (100 μM): around 400
